The results in this text go back to patent publication US8487001B2, “Medium-chain length fatty acids, glycerides and analogues as neutrophil survival and activation factors” (ProMetic BioSciences Inc., priority 2001, dated 2013).

One series concerns human neutrophils (PMN). Put plainly: Doxorubicin-induced neutrophil apoptosis, comparison to GM-CSF (% PMN viability). The class given is cell-based. The text has this: (§1) Table 2 represents the effect of GM-CSF, MCT and tricaprylin on doxorubicin-induced human neutrophil apoptosis.
A further series concerns bone marrow cells. The series can be described thus: In vivo chemoprotection: bone marrow cell count. As to conditions: immunosuppressed animals; comparison MCT versus GM-CSF. As for the experimental part:
(§2) To examine the immunoprotective effect of MCT or other compounds, mice were pre-treated orally at day-3, -2 and -1 or treated intravenously at day 0 with the test compound. Mice were sacrificed at day +5 by cardiac puncture and cervical dislocation. Then, cell suspensions were prepared from thymus, spleen and bone marrow as follow.
(§3) Tissues were crushed in PBS buffer and contaminating erythrocytes were lysed in ACK buffer (155 mM NH4Cl, 12 mM NaHCO3, 0.1 mM EDTA, pH 7.3) for 5 minutes. Cells were then collected by centrifugation and washed three times in PBS and resuspended in tissue culture medium. Cells were counted on a hemacytometer.
(§4) Chemoprotection studies were performed as described in example 16 except that mice were (post)-treated with MCT, sodium caprylate, sodium caprate or capric acid per o.s. on day 1, 2, 3 and 4.

Another series concerns spleen cells. Put plainly: In vivo chemoprotection: spleen cell count. As to conditions: immunosuppressed animals; comparison MCT versus GM-CSF. On the procedure:
as §2, §3, §4

In another series the test system is thymus. The series can be described thus: In vivo: thymus weight, MCT versus GM-CSF. Particulars: normal mice; FIG. 8. On the procedure: as §2
In vivo comparison on the induction of immune cell proliferation/regeneration or protection was undertaken following the protocol described in example 16. Comparative studies of MCT and GM-CSF were performed on normal and immunosuppressed animals.

The test system of another series is neutrophils (PMN). Put plainly: Doxorubicin-induced neutrophil apoptosis, 4 hr incubation with or without MCT. It is filed as cell-based, human. As for the experimental part: PMN were isolated as described in example 10. Cells (2×10^6/ml) were incubated for 4 hr, at 37° C. in 5% CO2 and 95% humidity in the presence of various concentrations of a chemotherapeutic agent, doxorubicin. Apoptotic cells were evaluated as described in example 10. Data are expressed in percent of apoptotic cells.
PMN were isolated as described in example 10. Cells (2×10^6/ml) were incubated for 4 hr, at 37° C. in 5% CO2 and 95% humidity in the presence of various concentrations of doxorubicin with or without MCT (2.5% and 5.0%). Apoptotic cells were evaluated as described in example 10. Data are expressed in percent of apoptotic cells.
Results are expressed in percent of apoptotic cells after 4 hr of incubation in the presence or the absence of doxorubicin with or without MCT. […] However, in the presence of MCT, at a concentration of 2.5% and 5% (v/v), the apoptotic effects of doxorubicin are inhibited. Thus, MCT exerts an anti-apoptotic action on PMN. Apoptosis was also studied using the annexin V-FITC/PI (propidium iodide) to method according to the manufacturer's Biosources recommendations (Apotarget Annexin-VFITC Apoptosis Kit #PHN 1018). Annexin V binds to phosphatidylserine which is transferred from the internal to external membrane in early to late phase apoptosis. Briefly, neutrophils are incubated in the presence or absence of varying concentrations of doxorubicin and MCT. After 24 hr, neutrophils are washed with PBS and stained with […] of Annexin V-FITC and 10 μl of PI (Sigma, 1 mg/ml) for 20 minutes. After incubation, stained cells were fixed in paraformaldehyde (1%) and analyzed for apoptosis using an XL Flow Cytometer (Coulter). Data were then expressed as the percent of apoptotic cells. FIG. 4A represents a time-course response of MCT on doxorubicin-treated neutrophils.

Series [1] can be described thus: Doxorubicin-induced neutrophil apoptosis, comparison to GM-CSF (% PMN viability). The class given is cell-based, human. As to conditions: human.
From the text: as §1

The test system of the next series is B16F10 melanoma. Put plainly: Antitumor activity in B16F10 melanoma model. Particulars: FIG. 10; MCT 25 μMole/mouse i.v. day 7, 9, 14, 16; doxorubicin 10 mg/kg day 10 and 17 (sub-therapeutic); day 22. The class given is in vivo, C57BL/6 mice. On the procedure: Female 6-8-week old C57BL/6 mice were injected intravenously on day 0 with 1×10^5 B16F10 melanoma cells from ATCC (source of cell culture, Dr. I. J. Fidler). […] Mice were sacrificed on day 22. Body weight and tumor volume were recorded.

Turning to “GM-CSF: granulocyte-macrophage colony stimulating factor, hematopoietic growth factor”, the “% PMN Viability” value was 16.75 ± 2.05% with human neutrophils (PMN) (GM-CSF 10^-7 M + DOX (10^-5 M)) and 6.99 ± 0.23% in the series on human neutrophils (PMN) (GM-CSF 10^-8 M + DOX (10^-5 M)). Further, the “effect on doxorubicin-induced human neutrophil apoptosis” value with human neutrophils (PMN) (Table 2) is given as “able to rescue or protect human neutrophils against doxorubicin-induced apoptosis”. Besides, the “activity on bone marrow cell count” value in the series on bone marrow cells was “has no significant activity on bone marrow and spleen cell counts”. For the same molecule, the “activity on spleen cell count” value in the series with spleen cells is “has no significant activity on bone marrow and spleen cell counts”. Besides, the “effect on thymus weight” value with thymus was “significant effect”.
Consider `COc1cccc2c1C(=O)c1c(O)c3c(c(O)c1C2=O)C[C@@](O)(C(=O)CO)C[C@@H]3O[C@H]1C[C@H](N)[C@H](O)[C@H](C)O1` [Doxorubicin, doxorubicin], for which the “% Apoptosis of neutrophils (PMN)” value with neutrophils (PMN) (Experiment 1, doxorubicin 10^-4 M alone (Control, no MCT)) is 27.5%; in the series on neutrophils (PMN) (Experiment 1, doxorubicin 10^-5 M alone (Control, no MCT)) it was 23.8%; in the series with neutrophils (PMN) (Experiment 1, doxorubicin 10^-6 M alone (Control, no MCT)), 23.2%; in the series with neutrophils (PMN) (Experiment 1, doxorubicin 10^-8 M alone (Control, no MCT)), 18.7%; in the series on neutrophils (PMN) (Experiment 1, doxorubicin 10^-10 M alone (Control, no MCT)), 9.3%; in the series with neutrophils (PMN) (Experiment 2, doxorubicin 10^-4 M alone (Control, no MCT)), 53.2%. Further, the “% Apoptosis of neutrophils (PMN)” value in the series on neutrophils (PMN) (Experiment 2, doxorubicin 10^-5 M alone (Control, no MCT)) is on record as 66.2%; with neutrophils (PMN) (Experiment 2, doxorubicin 10^-6 M alone (Control, no MCT)), 55.0%; with neutrophils (PMN) (Experiment 2, doxorubicin 10^-8 M alone (Control, no MCT)), 59.2%; in the series on neutrophils (PMN) (Experiment 2, doxorubicin 10^-10 M alone (Control, no MCT)), 60.6%. For the same molecule, the “effect on PMN apoptosis” value with neutrophils (PMN) (various concentrations of doxorubicin, FIGS. 3A and 3B) was “induces PMN apoptosis”. In series [1], this molecule showed a viability of 6.82 ± 0.5%. In addition, the “reduction of the tumor volume” value with B16F10 melanoma is given as “around 25%”.
